Measurements reported in BindingDB's records for doi:10.1021/jm020951i (Uppsala University, 2003).

What was measured:
Assay in all cases: Enzyme Inhibition Measurements
Plasmepsin I = Plasmepsin I (Plasmodium falciparum, UniProt P39898); conditions: pH 4.5; 22 °C
Procedure: (§1) Enzyme activities were assayed by monitoring the hydrolysis of substrate in the presence or absence of inhibitor compounds. The hydrolysis was recorded as the increase in fluorescence intensity over a 10 min time period. IC50 values were obtained by assuming competitive inhibition and fitting the dose response data to the equation (Vi/V0) =1/ (1 + [I]/IC50)). The Ki was calculated by using Ki = IC50/ (1 + [S]/Km), and a Km value determined according to Michaelis-Menten.

Plasmepsin II = Plasmepsin II (Plasmodium falciparum (isolate HB3), UniProt P46925); conditions: pH 4.5; 22 °C
Sequence of Plasmepsin II (P46925 whole entry): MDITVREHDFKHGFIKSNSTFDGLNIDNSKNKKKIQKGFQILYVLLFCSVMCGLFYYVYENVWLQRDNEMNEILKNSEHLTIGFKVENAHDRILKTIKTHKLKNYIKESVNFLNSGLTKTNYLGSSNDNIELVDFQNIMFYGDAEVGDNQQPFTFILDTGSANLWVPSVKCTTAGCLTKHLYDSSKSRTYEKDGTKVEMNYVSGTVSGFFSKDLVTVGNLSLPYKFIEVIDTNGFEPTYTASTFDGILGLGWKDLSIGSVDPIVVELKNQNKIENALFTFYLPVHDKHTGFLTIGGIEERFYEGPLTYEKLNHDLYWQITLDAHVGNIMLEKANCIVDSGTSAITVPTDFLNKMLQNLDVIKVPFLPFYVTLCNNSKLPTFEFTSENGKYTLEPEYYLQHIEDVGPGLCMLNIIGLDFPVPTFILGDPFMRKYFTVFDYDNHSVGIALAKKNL
Procedure: as §1

Cathepsin D = Cathepsin D (Homo sapiens, UniProt P07339)
Sequence of Cathepsin D (P07339 65-162 limits assumed): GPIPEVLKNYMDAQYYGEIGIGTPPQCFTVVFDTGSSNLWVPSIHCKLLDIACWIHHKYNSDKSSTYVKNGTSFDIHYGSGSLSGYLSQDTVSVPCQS
Sequence of Cathepsin D (P07339 169-412 limits assumed): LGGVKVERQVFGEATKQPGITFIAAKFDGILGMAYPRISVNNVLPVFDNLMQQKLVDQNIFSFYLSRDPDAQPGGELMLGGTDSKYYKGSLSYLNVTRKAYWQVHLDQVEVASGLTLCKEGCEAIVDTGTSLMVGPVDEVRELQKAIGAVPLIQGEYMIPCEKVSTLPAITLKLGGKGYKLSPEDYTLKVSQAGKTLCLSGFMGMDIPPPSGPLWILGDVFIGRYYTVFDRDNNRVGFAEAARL
Procedure: as §1

Sequence of Plasmepsin I (P39898 whole entry): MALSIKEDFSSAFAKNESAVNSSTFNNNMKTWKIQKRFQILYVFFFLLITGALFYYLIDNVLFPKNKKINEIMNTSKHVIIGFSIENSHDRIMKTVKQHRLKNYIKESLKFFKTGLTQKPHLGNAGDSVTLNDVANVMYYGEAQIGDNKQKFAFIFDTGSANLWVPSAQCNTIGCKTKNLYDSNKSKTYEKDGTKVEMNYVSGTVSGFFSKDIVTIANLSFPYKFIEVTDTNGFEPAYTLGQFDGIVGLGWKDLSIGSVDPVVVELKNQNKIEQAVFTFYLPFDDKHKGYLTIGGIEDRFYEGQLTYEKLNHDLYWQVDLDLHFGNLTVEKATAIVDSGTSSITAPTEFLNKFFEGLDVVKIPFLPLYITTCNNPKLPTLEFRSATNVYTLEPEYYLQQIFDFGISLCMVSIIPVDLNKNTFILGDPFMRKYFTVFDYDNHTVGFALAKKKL

## CC(C)C[C@H](NC[C@H](O)[C@H](Cc1ccccc1)NC(=O)[C@@H](NC(=O)c1ccccn1)C(C)C)C(N)=O [(2S)-2-{[(2S,3S)-2-hydroxy-3-[(2S)-3-methyl-2-(pyridin-2-ylformamido)butanamido]-4-phenylbutyl]amino}-4-methylpentanamide]
Plasmepsin I
  Ki: 2900 nM
Plasmepsin II
  Ki: 3300 nM

## CC(C)[C@H](NC(=O)c1ccccn1)C(=O)N[C@@H](Cc1ccccc1)[C@@H](O)CN[C@@H](Cc1ccccc1)C(N)=O [(2S,5S,6R)-3-Aza-2-benzyl-5-hydroxy-7-phenyl-6-[(picolyl-L-valinyl)amino]heptanoyl Amide]
Plasmepsin I
  Ki: 2100 nM
Plasmepsin II
  Ki: 3200 nM

## COc1ccccc1-c1ccc(C[C@H](NC[C@H](O)[C@H](Cc2ccccc2)NC(=O)[C@@H](NC(=O)c2ccccn2)C(C)C)C(N)=O)cc1 [(2S,5S,6R)-3-Aza-5-hydroxy-2-[p-(o-methoxyphenyl)-benzyl]-7-phenyl-6-[(picolyl-L-valinyl)amino]heptanoyl Amide]
Cathepsin D
  Ki: 1700 nM

## CC(C)[C@H](NC(=O)c1ccccn1)C(=O)N[C@@H](Cc1ccccc1)[C@@H](O)CN[C@H](Cc1ccccc1)C(N)=O [(2R,5S,6R)-3-Aza-2-benzyl-5-hydroxy-7-phenyl-6-[(picolyl-L-valinyl)amino]heptanoyl Amide]
Plasmepsin I
  Ki: 8000 nM
Plasmepsin II
  Ki: 3500 nM

## CC(C)[C@H](NC(=O)c1ccccn1)C(=O)N[C@@H](Cc1ccccc1)[C@@H](O)CN[C@@H](Cc1ccc(-c2cccc(N)c2)cc1)C(N)=O [(2S,5S,6R)-3-Aza-2-[p-(m-aminophenyl)benzyl]-5-hydroxy-7-phenyl-6-[(picolyl-L-valinyl)amino]heptanoyl Amide]
Cathepsin D
  Ki: 1000 nM

## Cc1ccc(-c2ccc(C[C@H](NC[C@H](O)[C@H](Cc3ccccc3)NC(=O)[C@@H](NC(=O)c3ccccn3)C(C)C)C(N)=O)cc2)cc1 [(2S)-N-[(2S,3S)-4-{[(1S)-1-carbamoyl-2-[4-(4-methylphenyl)phenyl]ethyl]amino}-3-hydroxy-1-phenylbutan-2-yl]-3-methyl-2-(pyridin-2-ylformamido)butanamide]
Cathepsin D
  Ki: 1700 nM
